# Several values for one entry are separate records, joined by “and”; a condition that tells them apart may be missing. Identical values can stand only once.
# Legend:
# Format in all cases: cell-based
# S. aureus (ATCC 6538) = experiment: MIC and synergy test (Kull method); settings: compound or premix acting alone
# Description: (§1) The cumulative synergistic activity of propylene carbonate, organic compounds/preservative compounds are performed against selected microbial strains.
# (§2) Tryptic Soy Broth (TSB) media was used for bacterial evaluations and Yeast Malt Broth (YMB) for fungal evaluations. The compounds were added to the media and serially diluted. After serially diluting the media, 100 μl of a suspension of the testing bacteria or fungi were added to a final concentration of approximately […]. The inoculated media was then incubated at 32° C. for 2-5 days for bacteria or at 28° C. for 3-7 days for fungi.
# (§3) The lowest concentration of each compound or mixture or compounds to inhibit visible growth was taken as the minimum inhibitory concentration (MIC). The MIC was taken as end points of activity. End points for the mixture of compound A (Propylene Carbonate) and compound B (organic compounds/conventional preservative) were then compared with the end points for the pure active ingredient alone.
# (§4) Synergism was determined by a commonly used and accepted method described by Kull A. C.; Eisman, P. C.; Sylwestrowicz, H. D. and Mayer, R. L. 1961. Applied Microbiology, 9:538-541 using the ratio determine by:
# (§5) • QA is the concentration of compound A in PPM, acting alone, which produced an end point. • Qa is the concentration of compound A in PPM, in the mixture, which produced an end point. • QB is the concentration of compound B in PPM, acting alone, which produced an end point. • Qb is the concentration of compound B in PPM, in the mixture, which produced an end point
# (§6) When the sum of Qa/QA+Qb/QB is greater than one, antagonism is indicated. When the sum is equal to one, additive is indicated.
# (§7) The results comprise following parameters: 1. Test organism (bacteria or fungi), 2. The end-point activity in % measured by MIC for the compound A alone (QA), for compound A in the mixture (Qa), for compound B alone (QB), for compound B in the mixture (Qb), 3. The ratio of Propylene carbonate or combinations of propylene carbonate and an organic compound (compound A) to organic compound (compound B) in that particular combination and the synergy index (SI) based on the formula SI=Qa/QA+Qb/QB.
# B. cepacia (ATCC 25416) = experiment: MIC and synergy test (Kull method); settings: compound or premix acting alone
# Description: as §1, §2, §3, §4, §5, §6, §7
# E. coli (ATCC 8739) = experiment: MIC and synergy test (Kull method); settings: compound or premix acting alone
# Description: as §1, §2, §3, §4, §5, §6, §7
# [1] = test system: A. brasilensis (ATCC 16404); experiment: MIC and synergy test (Kull method); settings: compound or premix acting alone
# Description: as §1, §2, §3, §4, §5, §6, §7
# [2] = test system: P. aeruginosa (ATCC 9027); experiment: MIC and synergy test (Kull method); settings: compound or premix acting alone
# Description: as §1, §2, §3, §4, §5, §6, §7
# bacteria and fungi = experiment: Antimicrobial and antifungal characteristics (MIC), general statement; settings: alone
# C. albicans (ATCC 10231) = experiment: MIC and synergy test (Kull method)
# Description: as §1, §2, §3, §4, §5, §6, §7
Compound,"MIC of the compound acting alone (QA, QB) (S. aureus (ATCC 6538))","MIC of the compound acting alone (QA, QB) (B. cepacia (ATCC 25416))","MIC of the compound acting alone (QA, QB) (E. coli (ATCC 8739))","MIC of the compound acting alone (QA, QB) [1]","MIC of the compound acting alone (QA, QB) [2]",antimicrobial and antifungal characteristics (MIC) (bacteria and fungi),"MIC of the compound acting alone (QA, QB) (C. albicans (ATCC 10231))"
"CC1CCC(C(C)C)C(O)C1 (racemic) [DLM, DL-Menthol]",0.69%,0.69%,1.39%,,,,
"CCCCCCCC(=O)NO [CHA, Capryl Hydroxamic Acid]",0.125%,,0.031%,0.031%,,,
"Cc1cc(O)ccc1C(C)C [DBL, O-cymen-5-ol]",,,0.0625%,,,,
CCCCCCCCC(O)CO (stereo not shown) [DD],0.0312% and 0.0156%,0.0625%,0.0625% and 0.0312%,0.0156% and 0.008%,>2.5%,,
"CCCCC(O)CO (stereo not shown) [HD, 1,2-hexanediol]",2.5%,0.625%,1.25%,1.25%,1.25%,,
"CCCCCCOCC(O)CO (stereo not shown) [HG, Hexylglycerine]",,,,0.156%,,,
"CCCCCCC(O)CO (stereo not shown) [OD, 1,2 octanediol]",0.625%,,,0.312%,0.625%,,
"CCC(=O)O [PA, Propionic Acid]",,0.20%,,0.078%,,,
"CC1COC(=O)O1 (stereo not shown) [PC, Propylene Carbonate]",12.5% and 3.12% and 6.25%,3.12% and 1.56%,3.12% and 1.56% and 6.25%,1.56% and 3.12% and 0.78%,3.12%,no significant antimicrobial and antifungal characteristics,6.25%
"OCCc1ccccc1 [PhA, Phenethyl Alcohol]",,0.156%,,,,,0.625%
"CCCCCCCCCCC=O [UND, Undecanal]",,,,1.25%,,,
Alkyl Glucoside [AG6206],,,,,3.12%,,
